Assay results published in ChEMBL document CHEMBL1136268, “Retinoic acid receptor ligands based on the 6-cyclopropyl-2,4-hexadienoic acid” (Bioorg Med Chem Lett, 2003).
Changes are numbered by the printed parent chain.

Assays:
[1] = target: T1, Retinoic acid receptor gamma (Homo sapiens, UniProt P13631); assay: Inhibition of [3H]ATRA binding to human Retinoic acid receptor RAR gamma
T1 sequence (P13631 whole entry): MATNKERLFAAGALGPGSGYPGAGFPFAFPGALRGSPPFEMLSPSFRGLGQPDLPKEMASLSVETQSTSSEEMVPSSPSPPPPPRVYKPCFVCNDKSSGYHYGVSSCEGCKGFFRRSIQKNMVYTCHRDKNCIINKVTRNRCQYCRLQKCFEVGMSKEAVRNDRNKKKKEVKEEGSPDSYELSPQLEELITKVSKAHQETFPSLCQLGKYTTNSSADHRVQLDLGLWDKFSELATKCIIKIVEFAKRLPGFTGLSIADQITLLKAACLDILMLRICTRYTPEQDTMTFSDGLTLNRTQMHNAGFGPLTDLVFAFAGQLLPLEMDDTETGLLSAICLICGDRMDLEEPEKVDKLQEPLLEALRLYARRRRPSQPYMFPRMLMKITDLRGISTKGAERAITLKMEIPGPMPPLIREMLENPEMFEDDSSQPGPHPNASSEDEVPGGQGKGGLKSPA

[2] = target: T2, Retinoic acid receptor RXR-alpha (Homo sapiens, UniProt P19793); assay: Inhibition of [3H]9-cis-RA binding to human Retinoid X receptor RXR alpha
T2 sequence (P19793 whole entry): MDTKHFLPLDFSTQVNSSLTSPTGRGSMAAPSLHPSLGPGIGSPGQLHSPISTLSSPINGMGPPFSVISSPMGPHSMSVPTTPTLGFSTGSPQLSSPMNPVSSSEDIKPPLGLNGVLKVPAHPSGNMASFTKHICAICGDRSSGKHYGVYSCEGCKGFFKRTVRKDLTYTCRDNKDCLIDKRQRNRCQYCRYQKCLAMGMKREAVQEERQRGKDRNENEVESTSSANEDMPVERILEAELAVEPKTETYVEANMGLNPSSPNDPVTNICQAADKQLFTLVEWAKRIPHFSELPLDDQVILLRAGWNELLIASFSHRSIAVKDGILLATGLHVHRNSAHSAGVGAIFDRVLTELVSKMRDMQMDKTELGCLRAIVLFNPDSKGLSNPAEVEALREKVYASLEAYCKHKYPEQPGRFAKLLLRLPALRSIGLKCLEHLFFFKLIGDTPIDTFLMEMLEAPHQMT

[3] = target: T3, Retinoic acid receptor beta (Homo sapiens, UniProt P10826); assay: Transcriptional activation in CV-1 cells expressing human Retinoic acid receptor RAR beta; type: cell-based
T3 sequence (P10826 whole entry): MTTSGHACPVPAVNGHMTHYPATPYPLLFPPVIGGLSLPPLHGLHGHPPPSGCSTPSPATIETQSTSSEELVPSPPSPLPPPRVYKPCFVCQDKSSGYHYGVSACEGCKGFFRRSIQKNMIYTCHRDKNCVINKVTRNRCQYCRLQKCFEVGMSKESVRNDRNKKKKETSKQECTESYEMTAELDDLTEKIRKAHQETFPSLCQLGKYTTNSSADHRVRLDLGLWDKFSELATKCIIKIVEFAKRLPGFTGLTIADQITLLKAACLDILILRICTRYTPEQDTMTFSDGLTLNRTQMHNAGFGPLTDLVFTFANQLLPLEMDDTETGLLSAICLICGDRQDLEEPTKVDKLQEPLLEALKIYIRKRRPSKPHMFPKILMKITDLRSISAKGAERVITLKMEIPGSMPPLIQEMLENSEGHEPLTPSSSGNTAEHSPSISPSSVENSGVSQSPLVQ

[4] = target: T3, Retinoic acid receptor beta; assay: Inhibition of [3H]-ATRA binding to human Retinoic acid receptor RAR beta
[5] = target: T4, Retinoic acid receptor RXR-gamma (Mus musculus, UniProt P28705); assay: Transcriptional activation in CV-1 cells expressing mouse Retinoid X receptor RXR gamma; type: cell-based
T4 sequence (P28705 whole entry): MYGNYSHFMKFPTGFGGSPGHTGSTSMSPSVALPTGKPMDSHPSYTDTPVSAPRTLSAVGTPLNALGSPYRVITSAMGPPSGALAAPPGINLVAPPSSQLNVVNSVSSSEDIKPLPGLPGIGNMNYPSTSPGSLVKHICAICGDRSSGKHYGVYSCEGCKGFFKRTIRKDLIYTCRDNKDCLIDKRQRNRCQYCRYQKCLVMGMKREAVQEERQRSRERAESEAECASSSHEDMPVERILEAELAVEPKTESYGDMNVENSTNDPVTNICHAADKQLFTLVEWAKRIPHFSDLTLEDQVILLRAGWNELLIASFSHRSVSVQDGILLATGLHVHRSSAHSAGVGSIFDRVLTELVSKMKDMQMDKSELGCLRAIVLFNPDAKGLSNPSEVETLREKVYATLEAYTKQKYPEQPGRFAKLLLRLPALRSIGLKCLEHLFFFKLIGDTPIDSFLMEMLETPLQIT

[6] = target: T5, Retinoic acid receptor alpha (Homo sapiens, UniProt P10276); assay: Transcriptional activation in CV-1 cells expressing human Retinoic acid receptor RAR alpha; type: cell-based
T5 sequence (P10276 whole entry): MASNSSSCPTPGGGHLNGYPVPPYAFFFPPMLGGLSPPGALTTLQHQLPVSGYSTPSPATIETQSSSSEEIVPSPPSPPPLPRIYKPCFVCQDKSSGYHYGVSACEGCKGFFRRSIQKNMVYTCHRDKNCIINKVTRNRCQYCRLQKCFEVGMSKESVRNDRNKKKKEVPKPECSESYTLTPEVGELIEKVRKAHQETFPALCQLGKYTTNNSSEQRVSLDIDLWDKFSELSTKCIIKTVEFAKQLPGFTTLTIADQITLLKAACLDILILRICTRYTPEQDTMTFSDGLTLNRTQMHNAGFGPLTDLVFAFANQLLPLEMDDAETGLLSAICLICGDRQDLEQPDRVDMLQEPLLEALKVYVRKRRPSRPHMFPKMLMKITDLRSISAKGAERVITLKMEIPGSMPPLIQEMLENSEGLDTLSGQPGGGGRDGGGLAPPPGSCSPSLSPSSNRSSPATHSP

[7] = target: T5, Retinoic acid receptor alpha; assay: Inhibition of [3H]ATRA binding to human Retinoic acid receptor RAR alpha
[8] = target: T2, Retinoic acid receptor RXR-alpha; assay: Transcriptional activation in CV-1 cells expressing human Retinoid X receptor RXR-alpha; type: cell-based
[9] = target: T6, Retinoic acid receptor RXR-beta (Mus musculus, UniProt P28704); assay: Inhibition of [3H]9-cis-RA binding to mouse Retinoid X receptor RXR beta
T6 sequence (P28704 whole entry): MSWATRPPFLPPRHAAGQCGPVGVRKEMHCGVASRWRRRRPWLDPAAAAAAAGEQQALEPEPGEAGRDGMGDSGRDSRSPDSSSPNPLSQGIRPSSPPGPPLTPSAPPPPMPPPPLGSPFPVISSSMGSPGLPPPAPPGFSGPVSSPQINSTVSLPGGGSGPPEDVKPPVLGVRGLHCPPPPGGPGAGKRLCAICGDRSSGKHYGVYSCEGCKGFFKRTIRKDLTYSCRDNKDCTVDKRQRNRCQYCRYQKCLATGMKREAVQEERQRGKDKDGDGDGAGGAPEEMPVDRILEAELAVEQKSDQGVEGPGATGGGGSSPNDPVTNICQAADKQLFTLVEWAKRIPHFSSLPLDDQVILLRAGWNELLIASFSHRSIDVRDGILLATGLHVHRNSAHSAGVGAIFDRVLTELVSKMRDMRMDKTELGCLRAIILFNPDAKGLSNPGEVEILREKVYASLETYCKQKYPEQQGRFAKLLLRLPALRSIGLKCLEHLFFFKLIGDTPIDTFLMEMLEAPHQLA

[10] = target: T6, Retinoic acid receptor RXR-beta; assay: Transcriptional activation in CV-1 cells expressing mouse Retinoid X receptor RXR beta; type: cell-based
[11] = target: T1, Retinoic acid receptor gamma; assay: Transcriptional activation in CV-1 cells expressing human Retinoic acid receptor RAR gamma; type: cell-based
[12] = target: T7, Retinoic acid receptor RXR-gamma (Homo sapiens, UniProt P48443); assay: Inhibition of [3H]-9-cis-RA binding to human Retinoid X receptor RXR gamma
T7 sequence (P48443 whole entry): T4 sequence (P28705 whole entry) with T13A, F15Y, V31A, P34S, S228T, S230G, V258M, S450T

[13] = target: T3, Retinoic acid receptor beta; assay: Transcriptional activation in CV-1 cells expressing human Retinoic acid receptor RAR beta; Not active; type: cell-based
[14] = target: T5, Retinoic acid receptor alpha; assay: Transcriptional activation in CV-1 cells expressing human Retinoic acid receptor RAR alpha; Not active; type: cell-based
[15] = target: T1, Retinoic acid receptor gamma; assay: Transcriptional activation in CV-1 cells expressing human Retinoic acid receptor RAR gamma; Not active; type: cell-based

Row | SMILES | Kd [1] [nM] | Kd [2] [nM] | EC50 [3] [nM] | Kd [4] [nM] | EC50 [5] [nM] | EC50 [6] [nM] | Kd [7] [nM] | EC50 [8] [nM] | Kd [9] [nM] | EC50 [10] [nM] | EC50 [11] [nM] | Kd [12] [nM] | EC50 [13] | EC50 [14] | EC50 [15]
1 | CC(/C=C/CC1(c2cc(C(C)(C)C)cc(C(C)(C)C)c2)CC1)=C\C(=O)O | > 1000 | 3 | 139 | > 1000 | 23 | 733 | > 1000 | 30 | 8 | 19 | 391 | – | – | – | –
2 | CC(/C=C/CC1(c2cc(C(C)(C)C)cc3c2CCC3(C)C)CC1)=C\C(=O)O | > 1000 | – | – | > 1000 | – | – | > 1000 | – | – | – | – | 22 | Not Active | Not Active | Not Active
3 | CC(/C=C/CC1(c2cc3c(cc2C)C(C)(C)CCC3(C)C)CC1)=C\C(=O)O | > 1000 | 16 | – | – | 36 | – | > 1000 | 31 | 18 | 9 | – | 153 | Not Active | Not Active | Not Active

The next lines start with the values.

Row | Kd [1] [nM] | Kd [2] [nM] | EC50 [3] [nM] | Kd [4] [nM] | EC50 [5] [nM] | EC50 [6] [nM] | Kd [7] [nM] | EC50 [8] [nM] | Kd [9] [nM] | EC50 [10] [nM] | EC50 [11] [nM] | Kd [12] [nM] | EC50 [13] | EC50 [14] | EC50 [15] | SMILES
4 | – | – | – | – | – | – | – | – | – | – | – | 8 | – | – | – | CC(/C=C/CC1(c2ccc3c(c2)C(C)(C)CCC3(C)C)CC1)=C\C(=O)O
5 | > 1000 | – | – | > 1000 | 24 | – | > 1000 | – | 7 | 19 | – | 6 | Not Active | Not Active | Not Active | CC(/C=C/CC1(c2ccc3c(c2)C(C)(C)CCC3(C)C)CCCC1)=C\C(=O)O
